The supplement of paper PMC4862054

Experiments:
Conditions in all cases: incubation time: 72 h
HDQ-P1 [1] = assay: drug sensitivity score (DSS), CellTiter-Glo (DSS (AUC-based score)); higher = stronger drug effect (viability inhibition or cytotoxicity); extreme values may be limits of the assay
Method in brief: (§1)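 Using 20 µl of cell suspension per well, breast cancer cell lines were seeded into 384-well plates pre-loaded with compound at 5 concentrations in 10-fold steps across a compound-specific 10,000-fold range. Incubation lasted 72 h, after which CellTox Green fluorescence at 485/520 nm and then CellTiter-Glo luminescence, following 10 min at room temperature, were recorded. Each plate was normalised to 0.1 % DMSO and a positive kill control before the drug sensitivity score was derived from the area under the fitted dose-response curve.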

CAL-148 [2] = assay: as above
Method in brief: as §1

MFM-223 [3] = assay: as above
Method in brief: as §1

CAL-85-1 [4] = assay: as above
Method in brief: as §1

Hs578T = assay: as above
Method in brief: as §1

CAL-51 [5] = assay: as above
Method in brief: as §1

MDA-MB-436 = assay: as above
Method in brief: as §1

CAL-120 [6] = assay: as above
Method in brief: as §1

MDA-MB-453 [7] = assay: as above
Method in brief: as §1

HCC1599 [8] = assay: as above
Method in brief: as §1

MDA-MB-231 [9] = assay: as above
Method in brief: as §1

BT-549 [10] = assay: as above
Method in brief: as §1

DU-4475 [11] = assay: as above
Method in brief: as §1

HCC1143 [12] = assay: as above
Method in brief: as §1

MDA-MB-468 [13] = assay: as above
Method in brief: as §1

HCC1937 [14] = assay: as above
Method in brief: as §1

MCF-10A [15] = assay: as above
Method in brief: as §1

BT-474 [16] = assay: as above
Method in brief: as §1

SK-BR-3 = assay: as above
Method in brief: as §1

HDQ-P1 [17] = assay: drug sensitivity score (DSS), CellTox Green (DSS (AUC-based score)); higher = stronger drug effect (viability inhibition or cytotoxicity); extreme values may be limits of the assay
Method in brief: as §1

CAL-148 [18] = assay: as above
Method in brief: as §1

MFM-223 [19] = assay: as above
Method in brief: as §1

CAL-85-1 [20] = assay: as above
Method in brief: as §1

CAL-51 [21] = assay: as above
Method in brief: as §1

CAL-120 [22] = assay: as above
Method in brief: as §1

MDA-MB-453 [23] = assay: as above
Method in brief: as §1

HCC1599 [24] = assay: as above
Method in brief: as §1

MDA-MB-231 [25] = assay: as above
Method in brief: as §1

BT-549 [26] = assay: as above
Method in brief: as §1

DU-4475 [27] = assay: as above
Method in brief: as §1

HCC1143 [28] = assay: as above
Method in brief: as §1

MDA-MB-468 [29] = assay: as above
Method in brief: as §1

HCC1937 [30] = assay: as above
Method in brief: as §1

MCF-10A [31] = assay: as above
Method in brief: as §1

BT-474 [32] = assay: as above
Method in brief: as §1

## c1ccc([C@H]2CN3CCSC3=N2)cc1 [Levamisole]
HDQ-P1 [1]
  drug sensitivity score: 0
CAL-148 [2]
  drug sensitivity score: 0
MFM-223 [3]
  drug sensitivity score: 0
CAL-85-1 [4]
  drug sensitivity score: 0
Hs578T
  drug sensitivity score: 0
CAL-51 [5]
  drug sensitivity score: 0
MDA-MB-436
  drug sensitivity score: 0
CAL-120 [6]
  drug sensitivity score: 0
MDA-MB-453 [7]
  drug sensitivity score: 0
HCC1599 [8]
  drug sensitivity score: 0
MDA-MB-231 [9]
  drug sensitivity score: 0
BT-549 [10]
  drug sensitivity score: 0
DU-4475 [11]
  drug sensitivity score: 0
HCC1143 [12]
  drug sensitivity score: 0
MDA-MB-468 [13]
  drug sensitivity score: 0
HCC1937 [14]
  drug sensitivity score: 0
MCF-10A [15]
  drug sensitivity score: 0
BT-474 [16]
  drug sensitivity score: 0
SK-BR-3
  drug sensitivity score: 0
HDQ-P1 [17]
  drug sensitivity score: 2.62
CAL-148 [18]
  drug sensitivity score: 0
MFM-223 [19]
  drug sensitivity score: 0
CAL-85-1 [20]
  drug sensitivity score: 0
CAL-51 [21]
  drug sensitivity score: 0
CAL-120 [22]
  drug sensitivity score: 0
MDA-MB-453 [23]
  drug sensitivity score: 1.72
HCC1599 [24]
  drug sensitivity score: 0
MDA-MB-231 [25]
  drug sensitivity score: 1.47
BT-549 [26]
  drug sensitivity score: 0
DU-4475 [27]
  drug sensitivity score: 0
HCC1143 [28]
  drug sensitivity score: 0
MDA-MB-468 [29]
  drug sensitivity score: 0
HCC1937 [30]
  drug sensitivity score: 0
MCF-10A [31]
  drug sensitivity score: 0
BT-474 [32]
  drug sensitivity score: 0
